The text below walks through data of ChEMBL document CHEMBL1153642, “Induction of apoptosis in HuH-7 cancer cells by monoterpene and beta-carboline indole alkaloids isolated from the leaves of Tabernaemontana elegans” (2009).

For assay [1], the system named is Huh-7. Description: Induction of apoptosis in human HuH7 cells assessed as change in nuclear morphology after 48 hrs using Hoechst staining. In kind it is functional.
For assay [2], the system named is Huh-7. The assay is described as follows: Induction of apoptosis in human HuH7 cells assessed as change in nuclear morphology after 72 hrs using Hoechst staining. In kind it is functional.
Assay [3] deals with Huh-7. The assay is described as follows: Induction of apoptosis in human HuH7 cells assessed as change in nuclear morphology after 24 hrs using Hoechst staining. In kind it is functional.
The subject of assay [4] is Huh-7. Description: Induction of apoptosis in human HuH7 cells assessed as increase in caspase-3 activity after 12 hrs. In kind it is functional, cell-based.
The subject of assay [5] is Huh-7. Description: Induction of necrosis in human HuH7 cells. In kind it is functional, cell-based.
The test system of assay [6] is Huh-7. Description: Induction of apoptosis in human HuH7 cells assessed as cell death after 24 hrs by trypan blue dye exclusion assay. In kind it is functional, cell-based.

Calls of active or inactive are those of the source. The calls are words filed in the database; no cut-off is given here.

Take `C/C=C1/CN(C)[C@H]2Cc3c([nH]c4ccccc34)C(=O)C[C@H]1[C@@H]2C(=O)OC` [VOBASINE]: the Activity in assay [1] is listed as less than 25%; in assay [2] it was less than 25%; in assay [3], 40%. In addition, in assay [4], the outcome was Active. For the same molecule, the inhibition result in assay [5] is “inactive”.
On to `Cc1cc2c([nH]c3ccccc32)c2[n+]1C(C)NCC2` (configuration not stated), for which the result in assay [6] was Active.
Still for that read-out and setting: in the case of `Cc1cc2c3ccccc3n3c2c(n1)CCNC3C` (configuration not stated) it was “Active”.
Turning to `CC[C@@H]1CN(C)[C@H]2Cc3c([nH]c4ccccc34)C(=O)C[C@@H]1[C@H]2C(=O)OC` [TABERNAEMONTANINE], the Activity is less than 25% in assay [1], less than 25% in assay [2] and 40% in assay [3]. Moreover, in assay [4], the outcome was Active. Besides, in assay [5], the inhibition result is “inactive”.
